Measurements published in PubChem BioAssay AID248 (DTP/NCI, 2004).
Several values for one entry are separate records, joined by “and”; a condition that tells them apart may be missing. Equal values may be shown once. Toxic doses and inconclusive results are not listed. Rule as the data show it: active = T/C of 150% or more; inactive = T/C below 125%.

Test system: L1210 leukemia ip in BDF1 mice, survival T/C
Assay: NCI In Vivo Anticancer Drug Screen. Data for tumor model L1210 Leukemia (intraperitoneal) in B6D2F1 (BDF1) mice
Details: endpoint: mean survival time, higher = longer survival
In short: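 Each compound was tested against a transplantable tumor grown in mice. The endpoint was survival, with treated animals benchmarked against vehicle controls as a simple ratio.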

[1] = dose: 100.0 mg/kg/injection, schedule: Q04DX003 (ip), vehicle: saline
[2] = dose: 200.0 mg/kg/injection, schedule: Q04DX003 (ip), vehicle: saline
[3] = dose: 400.0 mg/kg/injection, schedule: Q04DX003 (ip), vehicle: saline
[4] = dose: 25.0 mg/kg/injection, schedule: Q01DX009 (ip), vehicle: saline
[5] = dose: 50.0 mg/kg/injection, schedule: Q01DX009 (ip), vehicle: saline
[6] = dose: 100.0 mg/kg/injection, schedule: Q01DX009 (ip), vehicle: saline
[7] = dose: 100.0 mg/kg/injection, schedule: Q01DX001 (ip), vehicle: carboxymethylcellulose (CMC)
[8] = dose: 200.0 mg/kg/injection, schedule: Q01DX001 (ip), vehicle: carboxymethylcellulose (CMC)
[9] = dose: 400.0 mg/kg/injection, schedule: Q01DX001 (ip), vehicle: carboxymethylcellulose (CMC)
[10] = dose: 100.0 mg/kg/injection, schedule: Q01DX001 (ip), vehicle: saline
[11] = dose: 200.0 mg/kg/injection, schedule: Q01DX001 (ip), vehicle: saline
[12] = dose: 400.0 mg/kg/injection, schedule: Q01DX001 (ip), vehicle: saline

Measured: T/C

CCCCCCCCCC(=O)N(CC)CC
inactive: dose: 200.0 mg/kg/injection, schedule: Q04DX002 (ip), vehicle: saline 111 % of control | dose: 400.0 mg/kg/injection, schedule: Q04DX002 (ip), vehicle: saline 92 % of control

c1cncc(C2OCCO2)c1
inactive: [1] 98 % of control | [2] 92 % of control | [3] 105 % of control

ClCCCNCc1ccccc1
inactive: [4] 111 % of control | [5] 97 % of control | [6] 97 % of control | [1] 94 % of control

CCOC(=O)C(=O)Nc1onc(C)c1NC(=O)C(=O)OCC
inactive: dose: 100.0 mg/kg/injection, schedule: Q01DX009 (ip), vehicle: saline with Tween-80 89 % of control | dose: 200.0 mg/kg/injection, schedule: Q01DX009 (ip), vehicle: saline with Tween-80 89 % of control | dose: 400.0 mg/kg/injection, schedule: Q01DX009 (ip), vehicle: saline with Tween-80 92 % of control

CC1=C/C(=N\N=C2/C=C(C)CC(C)(C)C2)CC(C)(C)C1
inactive: dose: 100.0 mg/kg/injection, schedule: Q01DX009 (ip), vehicle: Klucel (hydroxypropylcellulose) (HPC) 95 % of control | dose: 200.0 mg/kg/injection, schedule: Q01DX009 (ip), vehicle: Klucel (hydroxypropylcellulose) (HPC) 105 % of control | dose: 400.0 mg/kg/injection, schedule: Q01DX009 (ip), vehicle: Klucel (hydroxypropylcellulose) (HPC) 100 % of control

CC1(C)N=C(N)N=C(N)N1c1ccc(/C=C/C(=O)Nc2ccc(S(=O)(=O)F)cc2)cc1
inactive: dose: 75.0 mg/kg/injection, schedule: Q01DX001 (ip), vehicle: Klucel (hydroxypropylcellulose) (HPC) 97 % of control | dose: 150.0 mg/kg/injection, schedule: Q01DX001 (ip), vehicle: Klucel (hydroxypropylcellulose) (HPC) 92 % of control

Cc1ccc(C)c(C(O)C(=O)O)c1 (centres undefined)
inactive: dose: 75.0 mg/kg/injection, schedule: Q01DX001 (ip), vehicle: acetone 101 % of control | dose: 150.0 mg/kg/injection, schedule: Q01DX001 (ip), vehicle: acetone 98 % of control | dose: 300.0 mg/kg/injection, schedule: Q01DX001 (ip), vehicle: acetone 95 % of control

Clc1ccc(CN2COc3c(ccc4cccnc34)C2)cc1Cl
inactive: dose: 100.0 mg/kg/injection, schedule: Q04DX003 (ip), vehicle: saline sonified 105 % of control | dose: 200.0 mg/kg/injection, schedule: Q04DX003 (ip), vehicle: saline sonified 94 % of control | dose: 400.0 mg/kg/injection, schedule: Q04DX003 (ip), vehicle: saline sonified 100 % of control

CCCCOC(=O)c1nc[nH]c1[N+](=O)[O-]
inactive: dose: 100.0 mg/kg/injection, schedule: Q01DX001 (ip), vehicle: other 93 % of control | dose: 200.0 mg/kg/injection, schedule: Q01DX001 (ip), vehicle: other 101 % of control | dose: 400.0 mg/kg/injection, schedule: Q01DX001 (ip), vehicle: other 101 % of control

C#CCN(C)Cc1ccccc1
inactive: [4] 94 % of control | [5] 89 % of control | [6] 87 % of control | [1] 103 % of control | dose: 200.0 mg/kg/injection, schedule: Q01DX009 (ip), vehicle: saline 98 % of control | [2] 103 % of control | [3] 97 % of control

CN(C)P(=O)(Oc1c(Cl)c(Cl)c(Cl)c(Cl)c1Cl)Oc1c(Cl)c(Cl)c(Cl)c(Cl)c1Cl
inactive: dose: 100.0 mg/kg/injection, schedule: Q04DX002 (ip), vehicle: saline with Tween-80 107 % of control | dose: 200.0 mg/kg/injection, schedule: Q04DX002 (ip), vehicle: saline with Tween-80 110 % of control | dose: 400.0 mg/kg/injection, schedule: Q04DX002 (ip), vehicle: saline with Tween-80 93 % of control

O=[N+]([O-])CC(Nc1ccccc1)c1ccccc1 (centres undefined)
inactive: dose: 12.5 mg/kg/injection, schedule: Q01DX009 (ip), vehicle: Klucel (hydroxypropylcellulose) (HPC) 108 % of control | dose: 25.0 mg/kg/injection, schedule: Q01DX009 (ip), vehicle: Klucel (hydroxypropylcellulose) (HPC) 100 % of control | dose: 50.0 mg/kg/injection, schedule: Q01DX001 (ip), vehicle: Klucel (hydroxypropylcellulose) (HPC) 96 % of control and 110 % of control | dose: 50.0 mg/kg/injection, schedule: Q01DX001 (ip), vehicle: carboxymethylcellulose (CMC) 102 % of control | dose: 50.0 mg/kg/injection, schedule: Q01DX009 (ip), vehicle: Klucel (hydroxypropylcellulose) (HPC) 102 % of control | dose: 100.0 mg/kg/injection, schedule: Q01DX001 (ip), vehicle: Klucel (hydroxypropylcellulose) (HPC) 97 % of control and 98 % of control | [7] 102 % of control | dose: 200.0 mg/kg/injection, schedule: Q01DX001 (ip), vehicle: Klucel (hydroxypropylcellulose) (HPC) 102 % of control and 107 % of control | [8] 100 % of control | dose: 400.0 mg/kg/injection, schedule: Q01DX001 (ip), vehicle: Klucel (hydroxypropylcellulose) (HPC) 105 % of control | [9] 90 % of control

O=C(O)c1cccnc1.[Cu+2]
inactive: dose: 9.5 mg/kg/injection, schedule: Q01DX001 (ip), vehicle: other 97 % of control | dose: 19.0 mg/kg/injection, schedule: Q01DX001 (ip), vehicle: other 97 % of control | dose: 38.0 mg/kg/injection, schedule: Q01DX001 (ip), vehicle: other 100 % of control

O=C(NNc1nc(-c2ccccc2)nc(-c2ccccc2)n1)c1ccccc1
inactive: [10] 95 % of control | [11] 96 % of control | [12] 89 % of control

O=C(COc1cccc(Cl)c1)NCc1ccccc1NC(=O)c1cccc(S(=O)(=O)F)c1
inactive: [7] 90 % of control | [8] 95 % of control | [9] 95 % of control

COC1OC(CO)C(O)C(OC)C1NC(C)=O (centres undefined)
inactive: [10] 103 % of control | [11] 106 % of control | [12] 101 % of control
